Assays:
Format in all cases: biochemical
[1] = target: PI4K2A (Homo sapiens, UniProt Q9BTU6); test: PI4 kinase inhibition, ADP-Glo Kinase assay; settings: 60 min, 10 μM ATP, not tested at concentration higher than 10 μM
Description: (§1) Inhibition of PI4 kinases was performed with the ADP-Glo™ Kinase assay which measures the ADP formed from a kinase reaction, where ADP is converted into ATP and then converted into light by Ultra-Glo™ Luciferase. Reactions were carried out for 60 min at 10 μM ATP. The luminescent signal produced in reaction is proportional to the kinase activity.

[2] = target: PI4KA (Homo sapiens, UniProt P42356); test: PI4 kinase inhibition, ADP-Glo Kinase assay; settings: 60 min, 10 μM ATP
PI4KA, sequence (P42356 whole entry, species assumed): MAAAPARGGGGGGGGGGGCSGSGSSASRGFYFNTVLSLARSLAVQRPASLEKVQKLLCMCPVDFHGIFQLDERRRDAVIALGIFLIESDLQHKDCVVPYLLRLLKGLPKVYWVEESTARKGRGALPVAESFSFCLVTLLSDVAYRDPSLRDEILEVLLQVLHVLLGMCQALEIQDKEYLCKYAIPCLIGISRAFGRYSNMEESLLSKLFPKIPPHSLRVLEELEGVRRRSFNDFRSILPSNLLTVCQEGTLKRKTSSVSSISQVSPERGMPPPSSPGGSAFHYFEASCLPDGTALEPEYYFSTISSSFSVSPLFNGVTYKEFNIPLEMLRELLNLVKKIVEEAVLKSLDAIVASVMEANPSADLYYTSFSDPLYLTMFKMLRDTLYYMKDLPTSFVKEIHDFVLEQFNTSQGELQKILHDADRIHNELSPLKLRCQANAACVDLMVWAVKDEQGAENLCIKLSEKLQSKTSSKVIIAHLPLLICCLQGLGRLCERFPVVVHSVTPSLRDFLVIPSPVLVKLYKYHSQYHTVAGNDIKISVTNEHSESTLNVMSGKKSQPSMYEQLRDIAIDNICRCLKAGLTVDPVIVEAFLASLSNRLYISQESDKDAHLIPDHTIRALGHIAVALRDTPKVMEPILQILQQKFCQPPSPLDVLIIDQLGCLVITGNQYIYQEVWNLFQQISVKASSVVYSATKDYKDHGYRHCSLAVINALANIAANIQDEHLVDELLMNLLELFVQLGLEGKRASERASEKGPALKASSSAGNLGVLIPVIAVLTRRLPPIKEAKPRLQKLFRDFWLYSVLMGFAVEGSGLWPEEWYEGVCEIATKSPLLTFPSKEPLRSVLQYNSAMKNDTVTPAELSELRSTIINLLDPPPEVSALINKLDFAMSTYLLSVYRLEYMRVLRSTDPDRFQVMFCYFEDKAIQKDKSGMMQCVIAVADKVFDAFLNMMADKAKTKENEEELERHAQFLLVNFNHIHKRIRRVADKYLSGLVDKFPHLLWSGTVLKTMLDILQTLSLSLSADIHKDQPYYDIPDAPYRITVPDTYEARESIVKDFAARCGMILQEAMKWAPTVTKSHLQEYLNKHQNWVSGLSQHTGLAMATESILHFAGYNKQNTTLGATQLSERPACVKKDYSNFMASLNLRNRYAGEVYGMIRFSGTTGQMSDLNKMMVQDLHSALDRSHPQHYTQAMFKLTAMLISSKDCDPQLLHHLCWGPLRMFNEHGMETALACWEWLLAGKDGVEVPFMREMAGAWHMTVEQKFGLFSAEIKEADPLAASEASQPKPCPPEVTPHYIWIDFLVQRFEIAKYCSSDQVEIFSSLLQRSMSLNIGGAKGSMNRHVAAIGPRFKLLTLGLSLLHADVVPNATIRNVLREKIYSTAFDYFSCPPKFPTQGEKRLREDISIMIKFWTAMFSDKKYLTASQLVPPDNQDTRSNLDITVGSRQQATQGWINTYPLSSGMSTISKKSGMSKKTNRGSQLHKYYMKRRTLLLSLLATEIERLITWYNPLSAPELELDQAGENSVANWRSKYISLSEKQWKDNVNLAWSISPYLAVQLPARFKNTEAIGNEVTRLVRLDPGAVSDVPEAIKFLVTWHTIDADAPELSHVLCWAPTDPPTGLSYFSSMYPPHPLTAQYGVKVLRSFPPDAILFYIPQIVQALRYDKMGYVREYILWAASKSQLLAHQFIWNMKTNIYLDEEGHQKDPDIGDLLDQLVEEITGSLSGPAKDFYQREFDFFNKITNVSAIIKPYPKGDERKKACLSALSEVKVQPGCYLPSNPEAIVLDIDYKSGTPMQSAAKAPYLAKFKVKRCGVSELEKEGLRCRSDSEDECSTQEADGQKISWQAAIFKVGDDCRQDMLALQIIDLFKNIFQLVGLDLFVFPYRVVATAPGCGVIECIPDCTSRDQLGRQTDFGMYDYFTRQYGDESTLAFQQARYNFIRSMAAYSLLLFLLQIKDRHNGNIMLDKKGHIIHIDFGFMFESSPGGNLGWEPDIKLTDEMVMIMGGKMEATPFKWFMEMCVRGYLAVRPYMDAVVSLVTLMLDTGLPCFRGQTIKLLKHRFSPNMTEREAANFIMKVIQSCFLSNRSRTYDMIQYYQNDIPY
Description: as §1

[3] = target: PI4K2B (Homo sapiens, UniProt Q8TCG2); test: PI4 kinase inhibition, ADP-Glo Kinase assay; settings: 60 min, 10 μM ATP, not tested at concentration higher than 10 μM
PI4K2B, sequence (Q8TCG2 whole entry, species assumed): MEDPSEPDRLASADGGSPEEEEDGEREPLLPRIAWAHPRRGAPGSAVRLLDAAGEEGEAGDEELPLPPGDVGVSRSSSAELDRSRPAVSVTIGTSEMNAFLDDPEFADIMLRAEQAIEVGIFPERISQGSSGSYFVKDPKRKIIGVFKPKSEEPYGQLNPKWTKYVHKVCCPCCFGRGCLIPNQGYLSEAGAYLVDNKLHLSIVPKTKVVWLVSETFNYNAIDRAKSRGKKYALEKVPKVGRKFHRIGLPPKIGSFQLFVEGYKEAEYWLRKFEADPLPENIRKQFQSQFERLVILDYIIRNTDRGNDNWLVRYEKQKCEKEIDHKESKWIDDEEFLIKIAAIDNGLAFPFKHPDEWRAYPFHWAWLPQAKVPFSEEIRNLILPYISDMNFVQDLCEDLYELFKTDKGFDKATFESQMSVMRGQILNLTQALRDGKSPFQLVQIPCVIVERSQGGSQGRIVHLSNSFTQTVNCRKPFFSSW
Description: as §1

[4] = target: PI4KB (Homo sapiens, UniProt Q9UBF8); test: PI4 kinase inhibition, ADP-Glo Kinase assay; settings: 60 min, 10 μM ATP
PI4KB, sequence (Q9UBF8 whole entry, species assumed): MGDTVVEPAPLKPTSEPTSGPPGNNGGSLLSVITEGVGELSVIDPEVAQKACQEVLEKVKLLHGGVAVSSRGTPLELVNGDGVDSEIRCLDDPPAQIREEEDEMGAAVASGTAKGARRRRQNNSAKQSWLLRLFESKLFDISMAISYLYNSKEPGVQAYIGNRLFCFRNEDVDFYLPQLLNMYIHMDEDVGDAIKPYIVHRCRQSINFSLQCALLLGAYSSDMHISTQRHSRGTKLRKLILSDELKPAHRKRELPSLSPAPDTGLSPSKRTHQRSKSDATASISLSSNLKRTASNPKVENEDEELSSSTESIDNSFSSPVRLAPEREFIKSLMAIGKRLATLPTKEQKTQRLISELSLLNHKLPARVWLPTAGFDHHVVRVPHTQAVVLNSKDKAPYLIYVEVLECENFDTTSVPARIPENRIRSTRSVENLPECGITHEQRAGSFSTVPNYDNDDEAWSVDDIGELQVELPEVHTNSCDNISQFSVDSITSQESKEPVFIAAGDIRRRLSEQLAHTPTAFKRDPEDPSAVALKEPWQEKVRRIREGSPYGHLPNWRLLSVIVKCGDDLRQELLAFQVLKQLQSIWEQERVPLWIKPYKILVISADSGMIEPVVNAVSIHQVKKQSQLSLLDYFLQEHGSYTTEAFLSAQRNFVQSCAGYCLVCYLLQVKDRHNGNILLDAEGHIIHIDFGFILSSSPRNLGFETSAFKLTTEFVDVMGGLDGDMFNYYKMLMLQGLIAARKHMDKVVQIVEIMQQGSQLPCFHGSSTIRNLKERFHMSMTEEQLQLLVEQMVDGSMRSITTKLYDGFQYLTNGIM
Description: as §1

[5] = target: PI3K (p120g) (Homo sapiens, UniProt P48736); test: PI3 kinase inhibition, HTRF assay; settings: not tested at concentration higher than 1 μM
PI3K (p120g), sequence (P48736 whole entry): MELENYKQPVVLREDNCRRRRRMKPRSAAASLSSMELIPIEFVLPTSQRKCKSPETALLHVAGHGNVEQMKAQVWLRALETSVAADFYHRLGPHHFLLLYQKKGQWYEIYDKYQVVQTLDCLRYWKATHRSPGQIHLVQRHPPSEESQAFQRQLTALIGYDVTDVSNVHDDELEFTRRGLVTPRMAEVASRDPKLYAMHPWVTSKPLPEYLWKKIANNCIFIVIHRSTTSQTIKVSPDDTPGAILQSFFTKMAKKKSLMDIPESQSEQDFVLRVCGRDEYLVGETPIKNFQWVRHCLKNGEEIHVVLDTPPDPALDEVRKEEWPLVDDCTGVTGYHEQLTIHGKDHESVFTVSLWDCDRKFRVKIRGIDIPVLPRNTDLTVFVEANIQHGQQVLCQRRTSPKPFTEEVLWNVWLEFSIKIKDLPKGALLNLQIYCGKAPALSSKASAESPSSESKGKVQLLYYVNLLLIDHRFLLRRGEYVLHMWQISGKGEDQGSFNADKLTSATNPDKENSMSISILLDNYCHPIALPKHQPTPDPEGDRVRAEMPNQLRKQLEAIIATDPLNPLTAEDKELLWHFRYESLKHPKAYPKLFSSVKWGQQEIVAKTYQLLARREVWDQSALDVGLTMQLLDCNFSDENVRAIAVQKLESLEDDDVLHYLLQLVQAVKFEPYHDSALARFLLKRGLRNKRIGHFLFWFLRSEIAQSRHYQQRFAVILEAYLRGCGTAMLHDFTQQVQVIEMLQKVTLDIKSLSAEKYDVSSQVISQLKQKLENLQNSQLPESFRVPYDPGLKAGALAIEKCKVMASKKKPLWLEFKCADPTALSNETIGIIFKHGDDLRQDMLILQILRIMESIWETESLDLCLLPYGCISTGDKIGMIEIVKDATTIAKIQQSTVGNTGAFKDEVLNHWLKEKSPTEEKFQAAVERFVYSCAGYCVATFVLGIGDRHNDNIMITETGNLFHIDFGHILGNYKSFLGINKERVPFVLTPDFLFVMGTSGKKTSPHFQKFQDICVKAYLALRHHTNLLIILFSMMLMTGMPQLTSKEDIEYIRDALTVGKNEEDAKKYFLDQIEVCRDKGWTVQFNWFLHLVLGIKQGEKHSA
Description: (§2) Inhibition of PI3 kinases was studied using the HTRF (homogeneous time-resolved fluorescence) assay which is a universal method for identifying and characterizing the phosphotransferase activity induced by any ATP/ADP dependent target. The formation of ADP was detected by a specific monoclonal antibody labeled with Eu^3+ cryptate; the amount of ADP formed directly correlates with the amount of phosphorylated substrate in kinase assays.

[6] = target: PI3KB (p110b/p85a) (Homo sapiens, UniProt P42338); test: PI3 kinase inhibition, HTRF assay
Description: as §2

[7] = target: PI3KA (p110a/p85a) (Homo sapiens, UniProt P42336); test: PI3 kinase inhibition, HTRF assay
Description: as §2

PI4K2A, sequence (Q9BTU6 whole entry, species assumed): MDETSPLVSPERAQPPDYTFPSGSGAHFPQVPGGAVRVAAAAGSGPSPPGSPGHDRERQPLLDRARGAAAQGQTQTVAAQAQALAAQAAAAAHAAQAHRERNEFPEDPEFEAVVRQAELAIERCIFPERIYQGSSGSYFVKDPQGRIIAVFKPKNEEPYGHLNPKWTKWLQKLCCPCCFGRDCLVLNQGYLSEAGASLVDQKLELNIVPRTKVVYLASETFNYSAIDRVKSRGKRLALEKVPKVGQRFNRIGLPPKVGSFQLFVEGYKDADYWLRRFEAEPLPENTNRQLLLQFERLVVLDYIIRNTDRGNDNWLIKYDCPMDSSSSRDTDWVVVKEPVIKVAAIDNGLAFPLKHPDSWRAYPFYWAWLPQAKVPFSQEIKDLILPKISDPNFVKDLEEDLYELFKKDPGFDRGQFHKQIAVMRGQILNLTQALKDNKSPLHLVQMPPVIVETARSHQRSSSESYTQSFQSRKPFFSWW

Cc1cc(CNc2cc(C)nc3c(-c4ccc5c(c4)c(C)nn5C)c(C)nn23)ccn1 [3-(1,3-dimethyl-1H-indazol-5-yl)-2,5-dimethyl-N-[(2-methylpyridin-4-yl)methyl]pyrazolo[1,5-a]pyrimidin-7-amine]
IC50 [1]: > 10 µM | IC50 [2]: 1.1 µM | IC50 [3]: > 10 µM | IC50 [4]: 0.0006 µM | IC50 [5]: > 1 µM | IC50 [6]: 5.4 µM | IC50 [7]: 3.4 µM

— patent US20260240762A1, “COMPOUND AND FORMULATION FOR SYSTEMIC THERAPY BY ORAL TRANSMUCOSAL ADMINISTRATION” (CUROVIR AB, priority 2023, published 2026)
